Test results from ChEMBL document CHEMBL4699602, “Stapled and Xenopus Glucagon-Like Peptide 1 (GLP-1)-Based Dual GLP-1/Gastrin Receptor Agonists with Improved Metabolic Benefits in Rodent Models of Obesity and Diabetes” (J Med Chem, 2020).
Where a SMILES comes first, the peptide text is derived from it. [ ]: non-standard residue; d: D form. ξ: configuration not given here. αMeH = C[C@](N)(Cc1c[nH]cn1)C(=O)O; Thr(3ξ) = CC(O)[C@H](N)C(=O)O; Aib = CC(C)(N)C(=O)O

molecular target: Glucagon-like peptide 1 receptor (Homo sapiens, UniProt P43220); assay: Agonist activity at human GLP-1R expressed in HEK293 cells assessed as stimulation of cAMP accumulation incubated for 20 mins; format: functional, cell-based
Sequence (P43220 whole entry): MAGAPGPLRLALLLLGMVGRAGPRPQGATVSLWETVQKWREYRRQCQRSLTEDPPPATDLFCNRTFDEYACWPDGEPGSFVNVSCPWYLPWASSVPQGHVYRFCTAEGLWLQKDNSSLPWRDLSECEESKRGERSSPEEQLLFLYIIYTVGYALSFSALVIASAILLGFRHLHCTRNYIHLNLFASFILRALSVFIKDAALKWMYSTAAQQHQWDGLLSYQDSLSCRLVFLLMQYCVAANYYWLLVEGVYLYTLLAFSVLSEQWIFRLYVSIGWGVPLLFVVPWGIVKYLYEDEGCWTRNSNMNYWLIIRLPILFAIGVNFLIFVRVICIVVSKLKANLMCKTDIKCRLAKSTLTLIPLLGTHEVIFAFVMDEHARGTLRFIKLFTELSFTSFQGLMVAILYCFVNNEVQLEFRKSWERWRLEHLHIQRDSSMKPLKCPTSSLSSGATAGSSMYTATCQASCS

Compound | EC50 [nM]
CC[C@H](C)[C@H](NC(=O)[C@H](CC(C)C)NC(=O)[C@H](Cc1c[nH]c2ccccc12)NC(=O)[C@H](CCC(=O)O)NC(=O)[C@H](CS)NC(=O)[C@H](Cc1ccccc1)NC(=O)[C@H](CCC(=O)O)NC(=O)[C@H](CCCCN)NC(=O)[C@H](C)NC(=O)[C@H](C)NC(=O)[C@H](CCC(=O)O)NC(=O)[C@H](CCC(=O)O)NC(=O)[C@H](CCC(=O)O)NC(=O)[C@H](CC(C)C)NC(=O)[C@H](Cc1ccc(O)cc1)NC(=O)[C@H](CCC(=O)O)NC(=O)[C@@H](NC(=O)[C@@H](NC(=O)[C@H](CC(=O)O)NC(=O)[C@H](CC(N)=O)NC(=O)[C@@H](NC(=O)[C@H](Cc1ccc(O)cc1)NC(=O)[C@@H](NC(=O)CNC(=O)[C@H](CCC(=O)O)NC(=O)C(C)(C)NC(=O)[C@@H](N)Cc1c[nH]cn1)[C@@H](C)O)[C@@H](C)O)C(C)C)[C@@H](C)O)C(=O)N[C@@H](CCCCN)C(=O)NCC(=O)N[C@@H](CS)C(=O)N1CCC[C@H]1C(=O)N[C@@H](CO)C(=O)N[C@@H](CO)C(=O)NCC(=O)N[C@@H](C)C(=O)N1CCC[C@H]1C(=O)N1CCC[C@H]1C(=O)N1CCC[C@H]1C(=O)N[C@@H](CO)C(N)=O (HELM PEPTIDE1{H.[Aib].E.G.T.Y.T.N.D.V.T.E.Y.L.E.E.E.A.A.K.E.F.C.E.W.L.I.K.G.C.P.S.S.G.A.P.P.P.S.[am]}$$$$V2.0) | 0.21
CC[C@H](C)[C@H](NC(=O)[C@H](CC(C)C)NC(=O)[C@H](Cc1c[nH]c2ccccc12)NC(=O)[C@H](CCC(=O)O)NC(=O)[C@H](CS)NC(=O)[C@H](Cc1ccccc1)NC(=O)[C@H](CCC(=O)O)NC(=O)[C@H](CCCCN)NC(=O)[C@H](C)NC(=O)[C@H](C)NC(=O)[C@H](CCC(=O)O)NC(=O)[C@H](CCC(=O)O)NC(=O)[C@H](CCC(=O)O)NC(=O)[C@H](CC(C)C)NC(=O)[C@H](Cc1ccc(O)cc1)NC(=O)[C@H](CCC(=O)O)NC(=O)[C@@H](NC(=O)[C@@H](NC(=O)[C@H](CC(=O)O)NC(=O)[C@H](CC(N)=O)NC(=O)[C@@H](NC(=O)[C@H](Cc1ccc(O)cc1)NC(=O)[C@@H](NC(=O)CNC(=O)[C@H](CCC(=O)O)NC(=O)C(C)(C)NC(=O)[C@@H](N)Cc1c[nH]cn1)[C@@H](C)O)[C@@H](C)O)C(C)C)[C@@H](C)O)C(=O)N[C@@H](CCCCN)C(=O)NCC(=O)N[C@@H](CS)C(N)=O (HELM PEPTIDE1{H.[Aib].E.G.T.Y.T.N.D.V.T.E.Y.L.E.E.E.A.A.K.E.F.C.E.W.L.I.K.G.C.[am]}$$$$V2.0) | 0.62
CC[C@H](C)[C@H](NC(=O)[C@H](CS)NC(=O)[C@H](Cc1c[nH]c2ccccc12)NC(=O)[C@H](CCC(=O)O)NC(=O)[C@@H](NC(=O)[C@H](Cc1ccccc1)NC(=O)[C@H](CCC(=O)O)NC(=O)[C@H](CCCCN)NC(=O)[C@H](CS)NC(=O)[C@H](C)NC(=O)[C@H](CCC(=O)O)NC(=O)[C@H](CCC(=O)O)NC(=O)[C@H](CCC(=O)O)NC(=O)[C@H](CC(C)C)NC(=O)[C@H](Cc1ccc(O)cc1)NC(=O)[C@H](CCC(=O)O)NC(=O)[C@@H](NC(=O)[C@@H](NC(=O)[C@H](CC(=O)O)NC(=O)[C@H](CC(N)=O)NC(=O)[C@@H](NC(=O)[C@H](Cc1ccc(O)cc1)NC(=O)[C@@H](NC(=O)CNC(=O)[C@H](CCC(=O)O)NC(=O)C(C)(C)NC(=O)[C@@H](N)Cc1c[nH]cn1)[C@@H](C)O)[C@@H](C)O)C(C)C)[C@@H](C)O)[C@@H](C)CC)C(=O)N[C@@H](CCCCN)C(=O)NCC(=O)N[C@@H](CCCCN)C(=O)N1CCC[C@H]1C(=O)N[C@@H](CO)C(=O)N[C@@H](CO)C(=O)NCC(=O)N[C@@H](C)C(=O)N1CCC[C@H]1C(=O)N1CCC[C@H]1C(=O)N1CCC[C@H]1C(=O)N[C@@H](CO)C(N)=O (HELM PEPTIDE1{H.[Aib].E.G.T.Y.T.N.D.V.T.E.Y.L.E.E.E.A.C.K.E.F.I.E.W.C.I.K.G.K.P.S.S.G.A.P.P.P.S.[am]}$$$$V2.0) | 0.24
CC[C@H](C)[C@H](NC(=O)[C@H](CS)NC(=O)[C@H](Cc1c[nH]c2ccccc12)NC(=O)[C@H](CCC(=O)O)NC(=O)[C@@H](NC(=O)[C@H](Cc1ccccc1)NC(=O)[C@H](CCC(=O)O)NC(=O)[C@H](CCCCN)NC(=O)[C@H](CS)NC(=O)[C@H](C)NC(=O)[C@H](CCC(=O)O)NC(=O)[C@H](CCC(=O)O)NC(=O)[C@H](CCC(=O)O)NC(=O)[C@H](CC(C)C)NC(=O)[C@H](Cc1ccc(O)cc1)NC(=O)[C@H](CCC(=O)O)NC(=O)[C@@H](NC(=O)[C@@H](NC(=O)[C@H](CC(=O)O)NC(=O)[C@H](CC(N)=O)NC(=O)[C@@H](NC(=O)[C@H](Cc1ccc(O)cc1)NC(=O)[C@@H](NC(=O)CNC(=O)[C@H](CCC(=O)O)NC(=O)C(C)(C)NC(=O)[C@@H](N)Cc1c[nH]cn1)[C@@H](C)O)[C@@H](C)O)C(C)C)[C@@H](C)O)[C@@H](C)CC)C(=O)N[C@@H](CCCCN)C(=O)NCC(=O)N[C@@H](CCCCN)C(N)=O (HELM PEPTIDE1{H.[Aib].E.G.T.Y.T.N.D.V.T.E.Y.L.E.E.E.A.C.K.E.F.I.E.W.C.I.K.G.K.[am]}$$$$V2.0) | 0.68
CC[C@H](C)[C@H](NC(=O)[C@H](CC(C)C)NC(=O)[C@H](CS)NC(=O)[C@H](CCC(=O)O)NC(=O)[C@@H](NC(=O)[C@H](Cc1ccccc1)NC(=O)[C@H](CCC(=O)O)NC(=O)[C@H](CCCCN)NC(=O)[C@H](C)NC(=O)[C@H](CS)NC(=O)[C@H](CCC(=O)O)NC(=O)[C@H](CCC(=O)O)NC(=O)[C@H](CCC(=O)O)NC(=O)[C@H](CC(C)C)NC(=O)[C@H](Cc1ccc(O)cc1)NC(=O)[C@H](CCC(=O)O)NC(=O)[C@@H](NC(=O)[C@@H](NC(=O)[C@H](CC(=O)O)NC(=O)[C@H](CC(N)=O)NC(=O)[C@@H](NC(=O)[C@H](Cc1ccc(O)cc1)NC(=O)[C@@H](NC(=O)CNC(=O)[C@H](CCC(=O)O)NC(=O)C(C)(C)NC(=O)[C@@H](N)Cc1c[nH]cn1)[C@@H](C)O)[C@@H](C)O)C(C)C)[C@@H](C)O)[C@@H](C)CC)C(=O)N[C@@H](CCCCN)C(=O)NCC(=O)N[C@@H](CCCCN)C(=O)N1CCC[C@H]1C(=O)N[C@@H](CO)C(=O)N[C@@H](CO)C(=O)NCC(=O)N[C@@H](C)C(=O)N1CCC[C@H]1C(=O)N1CCC[C@H]1C(=O)N1CCC[C@H]1C(=O)N[C@@H](CO)C(N)=O (HELM PEPTIDE1{H.[Aib].E.G.T.Y.T.N.D.V.T.E.Y.L.E.E.E.C.A.K.E.F.I.E.C.L.I.K.G.K.P.S.S.G.A.P.P.P.S.[am]}$$$$V2.0) | 0.13
CC[C@H](C)[C@H](NC(=O)[C@H](CC(C)C)NC(=O)[C@H](CS)NC(=O)[C@H](CCC(=O)O)NC(=O)[C@@H](NC(=O)[C@H](Cc1ccccc1)NC(=O)[C@H](CCC(=O)O)NC(=O)[C@H](CCCCN)NC(=O)[C@H](C)NC(=O)[C@H](CS)NC(=O)[C@H](CCC(=O)O)NC(=O)[C@H](CCC(=O)O)NC(=O)[C@H](CCC(=O)O)NC(=O)[C@H](CC(C)C)NC(=O)[C@H](Cc1ccc(O)cc1)NC(=O)[C@H](CCC(=O)O)NC(=O)[C@@H](NC(=O)[C@@H](NC(=O)[C@H](CC(=O)O)NC(=O)[C@H](CC(N)=O)NC(=O)[C@@H](NC(=O)[C@H](Cc1ccc(O)cc1)NC(=O)[C@@H](NC(=O)CNC(=O)[C@H](CCC(=O)O)NC(=O)C(C)(C)NC(=O)[C@@H](N)Cc1c[nH]cn1)[C@@H](C)O)[C@@H](C)O)C(C)C)[C@@H](C)O)[C@@H](C)CC)C(=O)N[C@@H](CCCCN)C(=O)NCC(=O)N[C@@H](CCCCN)C(N)=O (HELM PEPTIDE1{H.[Aib].E.G.T.Y.T.N.D.V.T.E.Y.L.E.E.E.C.A.K.E.F.I.E.C.L.I.K.G.K.[am]}$$$$V2.0) | 0.33
H-H[Aib]EGTYTNDVTEYLCEEAAKECIEWLIKGKPSSGAPPSKKKKKK-NH2 (cysteines drawn unpaired) | 0.17
H-H[Aib]EGTYTNDVTEYLEEEAACEFIEWLCKGKPSSGAPPSKKKKKK-NH2 (cysteines drawn unpaired) | 0.23
H-H[Aib]EG[Thr(3ξ)]YTNDVTEYLEEEAAKEFCEWLIKGCPSSGAPPSKKKKKK-NH2 (cysteines drawn unpaired) | 0.23

The next lines start with the values.

EC50 [nM] | Compound
0.13 | H-H[Aib]EGTYTNDVCEYLEEECAKEFIEWLIKGKPSSGAPPSKKKKKK-NH2 (cysteines drawn unpaired)
0.16 | H-H[Aib]EGTYTNDVTECLEEEAACEFIEWLIKGKPSSGAPPSKKKKKK-NH2 (cysteines drawn unpaired)
0.12 | H-H[Aib]EGTYTNDVTEYLECEAAKEFCEWLIKGKPSSGAPPSKKKKKK-NH2 (cysteines drawn unpaired)
0.13 | H-H[Aib]EGTYTNDVTEYLEEEAAKECIEWLIKCKPSSGAPPSKKKKKK-NH2 (cysteines drawn unpaired)
0.15 | H-H[Aib]EGTYTNDVTEYLEEEACKEFIEWCIKGKPSSGAPPSKKKKKK-NH2 (cysteines drawn unpaired)
0.1 | H-H[Aib]EGTYTNDVTEYLEEECAKEFIECLIKGKPSSGAPPSKKKKKK-NH2 (cysteines drawn unpaired)
0.073 | H-H[Aib]EGTY[Thr(3ξ)]NDV[Thr(3ξ)]EYLEECAAKEFICWLIKGKPSSGAPPSKKKKKK-NH2 (cysteines drawn unpaired)
0.11 | H-[αMeH]AEGTYTNDVTCYLEEEACKEFIEWLIKGKPSSGAPPSKKKKKK-NH2 (cysteines drawn unpaired)
